Data set [1] deals with MMP-8, then leucine aminopeptidase (AP). Kind of data set: MMP-8 for 22 h, followed by exposure to AP in AP buffer. The following applies: porcine kidney (AP), 37 °C, up to 22 h MMP + 30 minutes AP.
Data set [2] deals with T1, MMP-8 (Homo sapiens, UniProt P22894).
T1 construct: purchased EMD Millipore Corporation (Billerica, MA)
The data set can be described thus: MMP-8 cleavage of soluble PCL conjugates (HPLC decrease of main peak). The settings on record: up to 12 h; control PCLs; MMP-8 buffer pH 6.8-7.0, 37 °C. The data set is classed as biochemical. As to the method:
Pro-MMPs (e.g., MMP-8, MMP-1, or MMP-9; used at 0.1 mg/mL and >100.0 mU/mg based on the manufacturer’s information) were activated with p-aminophenylmercuric acetate (APMA) (8). For that, a 10 mM stock solution of APMA was freshly prepared in 0.1 M NaOH and a 10:1 (v/v) ratio of the respective proenzyme and the APMA solution (MMP:APMA) was incubated for 3 h at 37 °C. The activity was confirmed using the MMP-8 detection kit (QuickZyme Biosciences, Leiden, the Netherlands). A stock solution (90 µg/mL) of the activated MMP was prepared (used for cleavage studies on the PCL or the fully assembled microparticle-PCL-tastant setup (sensor), in MMP-8 buffer (200 mM NaCl, 50 mM Tris-HCl, 5 mM CaCl2, 1 µM ZnCl2, 0.05% Brij 35 at pH 6.8–7.0). All MMP experiments are described in detail in the Supplementary Methods. […]
in water ( v/v)) and eluent B (0.1 % TFA in 2:3 water-acetonitrile (v/v)) and a gradient from 33 to 80% elu ent B within 30 minutes. UV absorption was r ead at λ = 280 nm or 220 nm. After freezing the samples at -80 °C, fr eeze- drying was performed on a Christ Alpha 1 -4 de vi ce (Martin Christ Gefriertrocknungs anlagen, Osterode am Harz, G e r ma n y) at a desublimers ’ te mperature of - 60 ° C, pressure of 1.030 mbar and processing temperature of 19 °C.
Pro-MMPs (e. g. MMP -8, MMP -1 or MMP-9; adapted to 0.1 mg/mL and > 100.0 mU/mg based on manufacturer information and when appropriate) were activated with APMA 8. For that, a 10 mM stock solution of APMA in 0.1 M NaOH was freshly prepared and a 10:1 (v/v) ratio of the r especti ve proenzyme and APMA solution (MMP:APMA) was incubated for 3 h at 37 °C. The activity was conf ir med using the MMP-8 detection kit (Q uic kZ ym e® Biosciences, Leiden, Netherlands). A stock solution (90 µg/mL) of the activated MMP was prepared (used for cleavage studies on the pr ot eas e-cleavable linker (PCL; e.g. Figure 2) or the fully assemb led microparticle -PCL- t ast ant setup (sensor; e.g. Figure 3) , in MMP -8 buffer (200 mM NaCl, 50 mM Tris-H Cl, 5 mM C aC l2, 1 µM ZnCl2, 0.05 % Brij35 at pH 6.8- 7.0). A ll MMP -8 exp eriments wer e performed as follo ws. 25 µg of the sensor ( see chap ter : Peptide-coupling to beads (Sensor)) in 100 µL MMP-buffer or 1 mg of FP LC -purified and lyophilized PCL as described dissolved 2 mL M MP -buffer resulting in a final concentration of 0.5 mg/ mL substrate was used. […]
Figure 2A , 3, 4B ). […]
(sensor) in co mpar ison to negative controls (the negative controls for the PCL an d sensor exper i men ts were b y incubation without MMP under otherwise identical conditions). The relative d ecreas e of the PCL’s ma in peak was char act er ized by HPLC (PCL) or of the sensor’s fluorescence b y FACS (sensor) in comparison to control. […]

Data set [3] has as its system MMP-8. The data set can be described thus: MMP-8 in MMP-8 buffer. The settings on record: human, 37 °C, up to 22 h.
The test system of data set [4] is MMP-8. The data set can be described thus: MMP-8 buffer (200 mM NaCl, 50 mM Tris-HCl, 5 mM CaCl2, 1 µM ZnCl2, 0.05% Brij 35 at pH 6.8–7.0). The settings on record: human, 37 °C, up to 6 hours.
For data set [5], the target named is T2, Leucine aminopeptidase (AP) (Sus scrofa, UniProt P15145).
T2 construct: Leucine aminopeptidase (AP; Mw = 280 kDa) from porcine kidney; purchased Sigma-Aldrich Chemie, Schnelldorf, Germany; host or cells: porcine kidney (tissue-derived)
T2 sequence (P15145 1-963): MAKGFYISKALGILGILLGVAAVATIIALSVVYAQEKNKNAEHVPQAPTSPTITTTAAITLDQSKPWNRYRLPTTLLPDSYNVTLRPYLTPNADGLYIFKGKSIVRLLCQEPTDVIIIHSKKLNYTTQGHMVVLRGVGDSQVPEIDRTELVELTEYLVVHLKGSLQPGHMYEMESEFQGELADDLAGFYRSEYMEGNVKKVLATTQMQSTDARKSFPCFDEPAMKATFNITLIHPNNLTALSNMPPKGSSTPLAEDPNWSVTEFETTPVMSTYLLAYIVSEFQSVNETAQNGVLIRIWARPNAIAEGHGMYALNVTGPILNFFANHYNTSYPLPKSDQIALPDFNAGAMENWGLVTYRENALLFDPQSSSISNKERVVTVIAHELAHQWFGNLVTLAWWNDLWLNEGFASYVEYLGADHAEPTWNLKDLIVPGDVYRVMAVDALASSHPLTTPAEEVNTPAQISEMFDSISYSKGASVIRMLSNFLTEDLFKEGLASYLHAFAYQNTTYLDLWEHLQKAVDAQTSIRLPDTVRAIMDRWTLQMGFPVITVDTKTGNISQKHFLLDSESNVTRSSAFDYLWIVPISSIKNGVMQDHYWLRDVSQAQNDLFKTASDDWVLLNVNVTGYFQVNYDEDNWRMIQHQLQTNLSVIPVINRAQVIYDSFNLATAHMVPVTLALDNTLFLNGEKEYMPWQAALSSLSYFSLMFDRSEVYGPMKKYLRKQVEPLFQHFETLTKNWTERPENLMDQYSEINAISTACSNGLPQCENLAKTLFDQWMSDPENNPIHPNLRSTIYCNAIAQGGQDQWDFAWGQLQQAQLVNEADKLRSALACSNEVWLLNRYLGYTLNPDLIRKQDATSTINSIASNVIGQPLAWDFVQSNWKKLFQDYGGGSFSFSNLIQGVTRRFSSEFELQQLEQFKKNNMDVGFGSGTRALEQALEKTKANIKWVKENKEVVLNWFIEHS
Kind of data set: Aminopeptidase (AP) incubation. The data set is classed as biochemical, porcine. As to the method:
Leucine aminopeptidase (AP; Mw = 280 kDa) from porcine kidney dissolved in AP buffer (50 mM Tris-HCl, 1 mM CaCl2, and 150 mM NaCl at pH 7.0) was used. L-leucine-p-nitroanilide (0.125 mg/mL) was used as control substrate. For AP digestion, 1 mg of purified lyophilized peptide was diluted in 2 mL AP buffer resulting in a final concentration of 0.5 mg/mL substrate. To evaluate the impact of AP concentration on peptide cleavage, AP was added at concentrations of 0 (negative control), 0.87, 8.7, 39, and 78 µg/mL and the samples were incubated at 37 °C for 1 h. For analysis of the AP incubation time, an AP concentration of 0.87 µg/mL was used and analyzed after 10, 20 min and 1, 2, 3, and 6 h. To stop the enzyme activity, samples were kept at 95 °C for 15 min. Afterwards, HPLC analyses were performed (as described in the Supplementary Information) to analyze the relative decrease of the main peak as compared to the negative control. Further details are given in the Supplementary Methods.
MMP -9) in a concentration of 0.4 ng/µL (50 µL) were mixed with MMP -8 buffer (37 µL), detection enz yme (5 µL) and substrate (8µL; all fro m Q uic kZ yme® ). The acti vi t y was meas ur ed for 12 hours in inter vals of 10 minutes. […]
Aminopeptidase (AP) incubation
Leucine A minopeptidase (AP; M w = 280 kD a) from porcine kidney dissolved in AP buffer (50 mM Tris-HCl, 1 mM CaCl2 and 150 mM NaCl at pH 7.0) was used. L-leu cin e-p-nitroan ilide (0.125mg/ mL) was used as control substr at e. […] Fo r anal ysis of the impact of AP incubation time, the identical conditions were used (AP concentration of 0.87 µg / mL (and analyzed after 10, 20 minutes and 1, 2, 3 and 6 hours ). To stop the enzymatic activit y, sa mp les wer e kept at 95 °C for 15 minutes. A fterwards, H PLC analys es were p erformed (as descr ibed) to an al yze th e relative d ecr eas e of the ma i n pea k as co mp ared to the negative control (see […]
V(B)/(V(A)+V(B)) = 5 % to 90 % over 10 min, V(B)/(V(A)+V(B)) = 90 % for 5 min, V(B)/(V(A)+V(B)) = 90 % to 5 % over 3 min. […] UV detection was measured at 254 nm. […]

The subject of data set [6] is MMP-8. Kind of data set: MMP-8. The following applies: human, up to 12 h.

Where a SMILES comes first, the peptide text is derived from it. The star is where a group is joined. X1 = CC[N+](CC)(CC(=O)Nc1c(C)cccc1C)Cc1cccc(C(=O)*)c1

T1 sequence (P22894 101-467): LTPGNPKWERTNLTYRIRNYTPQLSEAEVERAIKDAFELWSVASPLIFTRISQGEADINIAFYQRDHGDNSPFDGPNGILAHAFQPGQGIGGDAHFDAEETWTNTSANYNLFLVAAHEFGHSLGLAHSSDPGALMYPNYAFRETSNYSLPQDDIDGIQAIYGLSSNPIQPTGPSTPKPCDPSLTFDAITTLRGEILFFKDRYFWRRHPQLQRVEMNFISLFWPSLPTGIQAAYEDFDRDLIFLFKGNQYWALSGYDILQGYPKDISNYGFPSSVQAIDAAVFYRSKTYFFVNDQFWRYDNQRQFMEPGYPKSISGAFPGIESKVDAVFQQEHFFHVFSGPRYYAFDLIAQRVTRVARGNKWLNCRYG

In the case of De-GPQG, the not cleaved result in data set [1] is recorded as “no difference after additional AP incubation for 30 minutes”.

As to “Cf-GPLGI AGQ-A( N3)-Q [ID #3, control PCL, exchange Q3L]”, in data set [2], the “cleavage by MMP-8” value is reported as “not cleaved”.

For the compound A( N3)-GPQGIA GQ-K-De, the cleaved bond result in data set [3] and in data set [4] was “G-I” in each case. For the same compound, the fragment found entry in data set [1] is given as “denatonium coupled lysin”.

Take `CC[C@H](C)[C@H](N)C(=O)N[C@@H](C)C(=O)NCC(=O)N[C@@H](CCC(N)=O)C(=O)N[C@@H](CCCCNC(=O)c1cccc(C[N+](CC)(CC)CC(=O)Nc2c(C)cccc2C)c1)C(N)=O` [ID #5a] (H-IAGQK(X1)-NH2): in data set [5] (870 ng/mL AP, within 250 min, 0.5 mg/mL substrate, AP buffer pH 7.0, 37 °C, HPLC, n = 5), the “cleavage of the peptide denatonium fragment by aminopeptidase” value is listed as 80%.

With Cf-GPQGYAGQ-A( N3)-Q, the not cleaved result in data set [6] is recorded as “not cleaved by MMP-8 up to 12 h”.

Take Cf-GP QGIA GQ-A( N3)-Q: the cleaved bond result in data set [4] is listed as “G-I”.

As to “Cf-GPQGYAGQ-A( N3)-Q [ID #4, control PCL, exchange I5Y]”, the “cleavage by MMP-8” value in data set [2] is reported as “not cleaved”.

In the case of “A( N3)-GPQGIA GQ-K-De [ID #5, second-generation PCL denatonium conjugate]”, the “effect of additional AP incubation after complete MMP-8 cleavage” value in data set [5] (AP 3.1 nM (0.87 µg/mL), 30 min, 37 °C, after 22 h with 1800 ng/mL MMP-8, LC-MS) was “emerging peaks”.

As to Cf-GPLGI AGQ-A( N3)-Q, in data set [6], the not cleaved entry was “not cleaved by MMP-8 up to 12 h”.

The record behind these values is article PMC5557808 (Nature Communications, 2017).
